According to patent publication US20240300923A1, “IRAK4 Inhibitors” (ASTRAZENECA AB, priority 2022, published 2024):

Assays:
IRAK4 [1] = target: T1, IRAK4 (Homo sapiens (Human), UniProt Q9NWZ3); assay: IRAK4 phosphorylation cell assay (IL-1β-stimulated Karpas-299 cells); type: cell-based; details: IRAK4 auto-phosphorylation (pIRAK4 Thr345/Ser346) in IL-1β-stimulated Karpas-299 cells; geometric mean of at least 2 experiments
Method: IRAK4 Phosphorylation Cell Assay
The activation of IRAK4 by TLR or IL-1R ligands leads to IRAK4 auto-phosphorylation, which can be prevented by IRAK4 kinase inhibitors. The effect of IRAK4 inhibitor compounds on IRAK4 auto-phosphorylation was assessed in IL-1β-stimulated Karpas-299 cells as a measurement of cellular potency. Karpas-299 cells were cultured in RPMI 1640 (Gibco 61870-010) containing 10% FBS (Gibco #10270). Cells were plated at 2×10^4 cells per well in poly-D-lysine coated 384 well plates (Corning #356663) to which compounds had been added at various concentrations (10 point half log dose response with a final top concentration of 30 μM) using an Echo 655 (Labcyte Inc). Cells were centrifuged (250 g, 4 mins), incubated at 37° C. for 1 h, then stimulated with 22.7 ng/mL recombinant IL-1β (R&D Systems, #201-LB-025) at 37° C. for 10 mins, followed by fixation in 4% paraformaldehyde for 20 mins and permeabilization in ice-cold 70% MeOH in PBS for 30 mins. Cells were washed twice with phosphate-buffered saline (PBS) on a BlueWasher (BlueCatBio) then blocked with PBS containing 10% FBS for 20 mins. Blocking solution was removed with a BlueWasher and cells were stained with anti-pIRAK4 (Thr345/Ser346) (CST, #11927, 1:400) in blocking buffer with 0.05% Tween-20 for 1 h, then washed twice with PBS containing 0.05% Tween-20 on a BlueWasher, followed by staining with a Alexa 647-conjugated secondary anti-rabbit IgG antibody (CST, #4414, 1:2,000) and Hoechst 33342 (Sigma, 1:2,000) in blocking buffer with 0.05% Tween-20 for 30 mins. Finally, the cells were washed twice with PBS containing 0.05% Tween-20 and imaged on an ImageXpress Micro (Molecular Devices) with a 10× air objective using the appropriate filters. Images were analysed in Columbus (PerkinElmer) and the fluorescence intensity per cell from the secondary antibody was quantified. The quantified data were analysed in Genedata Screener 19 (Genedata AG). […] IC50 values are the geometric mean of at least 2 experiments.

[2] = Human plasma protein binding, equilibrium dialysis (RED device); type: in vitro ADME; details: for fraction unbound at 18 h, 5 μM: human, plasma, pH 7.4
From the text: Plasma protein binding may have important implications on the pharmacokinetic behaviour of drugs. This is especially true for highly bound drugs, where the fraction unbound (fu) drug in plasma is an important parameter in the interpretation of in-vivo experiments. Traditionally, there are several different techniques used to determine the extent of drug binding to plasma proteins and equilibrium dialysis is probably the most common.
This method describes our current automated equilibrium dialysis assay in human plasma using the RED (Rapid Equilibrium Dialysis) Device and Hamilton sample handling system, described in WernevikJ et al. (2020) “A Fully Integrated Assay Panel for Early Drug Metabolism and Pharmacokinetics Profiling” Assay. Drug. Dev. Technol 18:157-179; DOI 10.1089/adt.2020.970.
The assay generally runs over three days including delivery of results. The pooled compounds are diluted in plasma to 5 μM and added to the inner chamber of the RED device and a phosphate buffer (pH 7.4) to the surrounding chamber to allow equilibrium dialysis over a semipermeable membrane with a molecular weight cut off at 8 kDa. The 5 μM solutions are also used to establish compound stability in plasma and recovery (mass balance) in the RED devices, with sampling performed at both the 0 and 18 h timepoints. Low recovery indicates binding to the dialysis equipment or solubility issues.
After dialysis for 18 hours, plasma and buffer samples are prepared for analysis by liquid chromatography and mass spectrometry (LC/MSMS). A seven-point calibration curve in plasma, ranging from 1.4 nM to 7 μM, is used to quantify the samples. All samples including the calibration curve, also contain an internal standard (IS) to allow for normalization between variations in injection volume in the UPLC-MS/MS instrumentation.
Three quality controls (QCs) are used in each run. Warfarin with low fu (fu mean ˜1%) is used as a control in each pool. Propranolol (˜30%) and Metoprolol (˜90%) are placed randomly in each run. The controls are monitored in the “Manhattan tool” (Winiwarter et al. (2015) “Time dependent analysis of assay comparability: a novel approach to understand intra-and inter-site variability over time” J. Comput. Aided Mol. Des. 29:795-807; DOI10.1007/s10822-015-9836-5), that defines the acceptance criteria for the QCs as 2.58×standard deviation.

IRAK4 [3] = target: T1, IRAK4; assay: IRAK4 enzyme assay (mass spectrometry readout); type: biochemical; details: human recombinant IRAK4 0.2 nM, 3 mM ATP; geometric mean of at least 2 experiments
Method: Potency of IRAK4 Inhibitor Compounds in IRAK4 Enzyme Assay
The inhibitory activity of compounds against IRAK4 were determined in an enzymatic assay using mass spectrometry readout. Ten point half-log compound concentration response curves, with a top concentration of 1 μM or 10 μM, were generated from 10 mM stocks of compound solubilized in DMSO using an Echo 655 (Labcyte Inc) and added to 384 well assay plates (Greiner #781280). To the assay plates, 10 μL of human recombinant IRAK4 protein (Life Technologies #PV4002) diluted to a final concentration of 0.2 nM in assay buffer (50 mM Tris-HCl pH 7.4, 10 mM MgCl, 5 mM glutathione, 0.01% BSA, 3 mM ATP) was added. The enzyme was incubated with the compounds at room temperature for 15 minutes before a peptide substrate ([…], Innovagen custom synthesis, 10 mM in DMSO) was added to each well to a final concentration of 10 μM using an Echo 655 (Labcyte Inc). After two hours at room temperature, the reaction was stopped with 65 μL of 0.4% formic acid (Merck #33015). The unphosphorylated and phosphorylated peptide were measured by LC-MS/MS on a Waters TQ-S mass spectrometer. Peaks were integrated using the TargetLynx software and the ratios between phosphorylated and unphosphorylated peptides were calculated. Curves were fitted and compound potencies determined in Genedata Screener 19 (Genedata AG). IC50 values are the geometric mean of at least 2 experiments.

T1 sequence (Q9NWZ3 whole entry): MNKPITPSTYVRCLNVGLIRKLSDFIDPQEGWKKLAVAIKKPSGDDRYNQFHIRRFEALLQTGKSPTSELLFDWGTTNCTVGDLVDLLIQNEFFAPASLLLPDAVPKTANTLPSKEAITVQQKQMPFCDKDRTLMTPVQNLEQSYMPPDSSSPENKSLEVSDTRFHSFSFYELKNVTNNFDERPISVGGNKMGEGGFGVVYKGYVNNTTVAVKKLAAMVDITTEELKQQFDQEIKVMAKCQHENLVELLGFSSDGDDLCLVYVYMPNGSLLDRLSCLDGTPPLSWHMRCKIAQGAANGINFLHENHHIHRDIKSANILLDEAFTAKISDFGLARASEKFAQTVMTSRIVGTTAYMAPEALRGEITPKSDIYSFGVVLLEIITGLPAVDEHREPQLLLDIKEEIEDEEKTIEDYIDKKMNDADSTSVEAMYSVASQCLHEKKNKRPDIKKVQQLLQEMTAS

fraction unbound at 18 h, 5 μM [2] | SMILES | IC50 (IRAK4 [1]) [nM] | Hu PPB (% free) ([2]; human plasma, 5 μM, dialysis 18 hours, single experiment or average of two or more) | IC50 (IRAK4 [3]) [nM]
– | COc1cc2nn([C@H]3CC[C@@]4(CC3)COC(=O)N4C)cc2cc1C(=O)Nc1cccn(C)c1=O [Example 20, 6-Methoxy-N-(1-methyl-2-oxo-1,2-dihydropyridin-3-yl)-2-((5s,8s)-1-methyl-2-oxo-3-oxa-1-azaspiro[4.5]decan-8-yl)-2H-indazole-5-carboxamide] | 128 | 14 | 5.6
~0.9 | COCCc1ccc(OCC(O)CNC(C)C)cc1 (stereo not drawn) [Metoprolol] | – | – | –
~0.3 | CC(C)NCC(O)COc1cccc2ccccc12 (stereo not drawn) [Propranolol] | – | – | –
~0.01 | CC(=O)CC(c1ccccc1)c1c(O)c2ccccc2oc1=O (stereo not drawn) [Warfarin] | – | – | –
